Patent US4416877A, “Anti-atherosclerotic pharmaceutical compositions containing diphosphonate compounds” (priority 1979, dated 1983)
“Also recorded” adds a separate entry of the source. Like-named read-outs stand apart in the source and are kept apart here.

What was measured:
lipid metabolism = assay: Effects of diphosphonates on lipid metabolism in normal rats (serum lipids, α/β cholesterol); assay type: in vivo, male Wistar rats; conditions: for Serum Chol. α/β (% control values) / Serum Free Fatty Acids (% control values) / Serum Phospholipids (% control values) / Serum Triglycerides (% control values) / change in vivo at 200 mg/kg/day: normal rats (N), 200 mg/kg/day p.o.; for increased HDL lipids, especially HDL cholesterol: normal rats; for change in vivo at 200 mg/kg/day: Rattus norvegicus, po
Procedure: Effects of diphosphonates of formula (I) on lipid metabolism in normal rats Groups of 4 to 5 normal male Wistar rats, weighing about 200 g were treated with diphosphonates (200 mg/kg/day) p.o. for 4 to 21 days. Water soluble compounds were given in solution in 24 mM bicarbonate buffer. Lipid soluble compounds were given in corn oil. The rats were weighed, sacrificed by decapitation (under light ether anesthesia) after overnight fasting. Blood was collected and serum used for analysis. The following blood parameters reflecting changes in lipid metabolism are reported: […]
free fatty acids measured according to W. G. Duncombe (Clin. Acta 9, 122, 1964) triglycerides enzymatic method (Boehringer Mannheim Kit 126 012) phospholipids: molybdate/vanadate reaction (Boehringer Mannheim Kit 124 974) β-lipoprotein cholesterol was measured after heparin, CaCl2 precipitation according to M. Burstein et al. (La Presse Medicale 43, 974, 1958) and to D. Watson (Clin. Chim. Acta 5, 637, 1960).
(§1) In above Table IV, results are given as % control values. Except for serum calcium, values which differ from control values by less than 15% are considered as non significant (NS).
Serum free fatty acids, triglycerides and phospholipids were measured in normal rats (N) and rats previously fed a cholesterol diet for 10 days (C.F.) Serum α/β cholesterol, total lipids and cholesterol of liver and aorta were determined in normal rats (N) and rats which had previously been fed on high cholesterol diet (C.F.)

tissue cholesterol = assay: Effects in cholesterol fed rats (serum, liver and aorta lipids); assay type: in vivo; conditions: for liver total lipids and/or liver cholesterol: cholesterol fed rats; for change in vivo at 200 mg/kg/day: Rattus norvegicus
Procedure: Effects of diphosphonates of formula (I) in cholesterol fed rats
In order to increase tissue cholesterol, especially liver, rats were fed a high fat-high cholesterol diet for 10 days to 3 months, with the following diet composition: casein 20%, butter 37%, cellulose 9.1%, dextrose 18,9%, cholesterol 4.5%, sodium cholate 1.8%, minerals 7.3%, vitamins 1%, choline 0.4%.
The rats were then fed normal food and were treated for 10 days to 3 months with different compounds (200 mg/kg/day). Serum parameters described above were measured. Liver and aorta lipids were extracted according to J. Folch et al (J. Biochem. 226, 497, 1957). Total lipids were determined by the sulfophosphovanillic reaction (see N. Zolner and K. Kirsch, Z. Ges. exp. Med. 135, 545, 1962) and cholesterol by the Liebermann-Burchard reaction or appropriate enzymatic reaction.
as §1
Serum free fatty acids, triglycerides and phospholipids were measured in normal rats (N) and rats previously fed a cholesterol diet for 10 days (C.F.)
Serum α/β cholesterol, total lipids and cholesterol of liver and aorta were determined in normal rats (N) and rats which had previously been fed on high cholesterol diet (C.F.)

[1] = cholesterol fed rats (C.F), 200 mg/kg/day
[2] = read-out: Serum Chol. α/β (% control values)
[3] = read-out: Serum Free Fatty Acids (% control values)
[4] = read-out: Serum Phospholipids (% control values)
[5] = read-out: Serum Triglycerides (% control values)
[6] = cholesterol fed rats (C.F), 200 mg/kg/day, read-out: Liver Chol. (% control values)
[7] = cholesterol fed rats (C.F), 200 mg/kg/day, read-out: Liver Total Lipids (% control values)

SMILES	increased HDL lipids, especially HDL cholesterol (lipid metabolism)	increase in serum phospholipid (lipid metabolism; rats)	α-cholesterol/β-cholesterol ratio / lipoprotein cholesterol (lipid metabolism; rats)	change in vivo at 200 mg/kg/day (lipid metabolism; [2]) [%]	change in vivo at 200 mg/kg/day (lipid metabolism; [4]) [%]	change in vivo at 200 mg/kg/day (lipid metabolism; [5]) [%]	further results
COP(=O)(OC)C(O)(C(C)(C)C)P(=O)(OC)OC [Compound 1]	–	–	–	–	–	–	Serum Chol. α/β (% control values) (lipid metabolism): NS (Except for serum calcium, values which differ from control values by less than 15% are considered as non significant (NS)); Serum Free Fatty Acids (% control values) (lipid metabolism): NS (Except for serum calcium, values which differ from control values by less than 15% are considered as non significant (NS)); Serum Phospholipids (% control values) (lipid metabolism): -43%; Serum Triglycerides (% control values) (lipid metabolism): +24%; property to change lipid metabolism / increase HDL (lipid metabolism; rats): do not have these properties
COP(=O)(OC)C(O)(c1ccccc1)P(=O)(OC)OC [Compound 2]	observed most dramatically	found to increase	highly significant activity	–	–	–	liver total lipids and/or liver cholesterol (tissue cholesterol): decreased significantly; Aorta Chol. (% control values) (tissue cholesterol; [1]): NS (Except for serum calcium, values which differ from control values by less than 15% are considered as non significant (NS)); Aorta Total Lipids (% control values) (tissue cholesterol; [1]): -30%; Liver Chol. (% control values) (tissue cholesterol; [1]): -50%; Liver Total Lipids (% control values) (tissue cholesterol; [1]): -24%; Serum Chol. α/β (% control values) (tissue cholesterol; [1]): +88%; Serum Free Fatty Acids (% control values) (tissue cholesterol; [1]): -56%; Serum Phospholipids (% control values) (tissue cholesterol; [1]): NS (Except for serum calcium, values which differ from control values by less than 15% are considered as non significant (NS)); Serum Triglycerides (% control values) (tissue cholesterol; [1]): -15%; Serum Free Fatty Acids (% control values) (lipid metabolism): NS (Except for serum calcium, values which differ from control values by less than 15% are considered as non significant (NS)); Serum Phospholipids (% control values) (lipid metabolism): +25%; Serum Triglycerides (% control values) (lipid metabolism): -21%; decreases in serum triglycerides (lipid metabolism; rats): Significant decreases
COP(=O)(OC)C(O)(c1ccc(C)cc1)P(=O)(OC)OC [Compound 3]	–	–	–	< 15	< 15	< 15	change in vivo at 200 mg/kg/day (lipid metabolism; [3]): < 15%
COP(=O)(OC)C(O)(c1ccc(Cl)cc1)P(=O)(OC)OC [Compound 4, Tetramethyl 1-(p-chlorophenyl)methane 1-hydroxy 1,1-diphosphonate]	observed most dramatically	found to increase; also recorded: at least two fold the most active	highly significant activity	–	43	-24	change in vivo at 200 mg/kg/day (tissue cholesterol; [6]): -56%; change in vivo at 200 mg/kg/day (tissue cholesterol; [7]): -31%; liver total lipids and/or liver cholesterol (tissue cholesterol): decreased significantly; Aorta Chol. (% control values) (tissue cholesterol; [1]): NS (Except for serum calcium, values which differ from control values by less than 15% are considered as non significant (NS)); Aorta Total Lipids (% control values) (tissue cholesterol; [1]): -47%; Serum Chol. α/β (% control values) (tissue cholesterol; [1]): +220%; Serum Free Fatty Acids (% control values) (tissue cholesterol; [1]): -67%; Serum Phospholipids (% control values) (tissue cholesterol; [1]): +21%; Serum Triglycerides (% control values) (tissue cholesterol; [1]): -21%; change in vivo at 200 mg/kg/day (lipid metabolism; [3]): -48%; decreases in serum triglycerides (lipid metabolism; rats): Significant decreases
COP(=O)(OC)C(O)(c1ccc(F)cc1)P(=O)(OC)OC [Compound 5]	observed most dramatically	–	highly significant activity	64	–	27	–
COP(=O)(OC)C(O)(C(C)(C)Oc1ccc(Cl)cc1)P(=O)(OC)OC [Compound 7, Tetramethyl 2,2-dimethyl 2(p-chlorophenoxy) ethane 1-hydroxy 1,1-diphosphonate]	–	found to increase	–	–	26	-33	change in vivo at 200 mg/kg/day (tissue cholesterol; [6]): -25%; change in vivo at 200 mg/kg/day (tissue cholesterol; [7]): < 15%; liver total lipids and/or liver cholesterol (tissue cholesterol): decreased significantly; Aorta Chol. (% control values) (tissue cholesterol; [1]): -19%; Aorta Total Lipids (% control values) (tissue cholesterol; [1]): -27%; Serum Chol. α/β (% control values) (tissue cholesterol; [1]): +27%; Serum Free Fatty Acids (% control values) (tissue cholesterol; [1]): -40%; Serum Phospholipids (% control values) (tissue cholesterol; [1]): NS (Except for serum calcium, values which differ from control values by less than 15% are considered as non significant (NS)); Serum Triglycerides (% control values) (tissue cholesterol; [1]): NS (Except for serum calcium, values which differ from control values by less than 15% are considered as non significant (NS)); change in vivo at 200 mg/kg/day (lipid metabolism; [3]): 28%; decreases in serum triglycerides (lipid metabolism; rats): Significant decreases
COP(=O)(OC)OC(C1CCCCC1)P(=O)(OC)OC (stereo not shown) [Compound 12]	–	–	–	–	–	–	Serum Chol. α/β (% control values) (lipid metabolism): NS (Except for serum calcium, values which differ from control values by less than 15% are considered as non significant (NS)); Serum Phospholipids (% control values) (lipid metabolism): NS (Except for serum calcium, values which differ from control values by less than 15% are considered as non significant (NS)); Serum Triglycerides (% control values) (lipid metabolism): -46%; decreases in serum triglycerides (lipid metabolism; rats): Significant decreases
COP(=O)(OC)OC(c1ccccc1Cl)P(=O)(OC)OC (stereo not shown) [Compound 14]	–	–	–	34	22	-42	–
COP(=O)(OC)OC(c1cccc(Cl)c1)P(=O)(OC)OC (stereo not shown) [Compound 15]	observed most dramatically	–	highly significant activity	69	< 15	-37	–
COP(=O)(OC)OC(c1ccc(F)cc1)P(=O)(OC)OC (stereo not shown) [Compound 17]	observed most dramatically	–	highly significant activity	81	< 15	< 15	–
COP(=O)(OC)OC(c1cc(C)ccc1C)P(=O)(OC)OC (stereo not drawn) [Compound 19, Dimethyl α-(dimethoxyphosphinyl)2,5-dimethylbenzyl phosphate]	–	–	–	15	< 15	< 15	decreases in serum triglycerides (lipid metabolism; rats): Significant decreases
COP(=O)(OC)OC(C(C)(C)c1ccccc1)P(=O)(OC)OC (stereo not shown) [Compound 20]	–	found to increase	–	25	15	36	–
COP(=O)(OC)OC(C(C)(C)Cc1ccc(Cl)cc1)P(=O)(OC)OC (stereo not shown) [Compound 22]	–	–	–	-38	< 15	-19	–
COP(=O)(OC)OC(c1ccc(C(=O)c2ccc(Cl)cc2)cc1)P(=O)(OC)OC (stereo not drawn) [Compound 23, Dimethyl [α-(dimethoxyphosphinyl) 4-(4'-chlorobenzoyl)]benzyl phosphate]	observed most dramatically	found to increase; also recorded: at least two fold the most active	highly significant activity	55	53	< 15	–
CCCCOP(=O)(OCCCC)OC(c1ccc(Cl)cc1)P(=O)(OCCCC)OCCCC (stereo not shown) [Compound 25]	–	–	–	–	–	–	Serum Chol. α/β (% control values) (lipid metabolism): NS (Except for serum calcium, values which differ from control values by less than 15% are considered as non significant (NS)); Serum Phospholipids (% control values) (lipid metabolism): NS (Except for serum calcium, values which differ from control values by less than 15% are considered as non significant (NS)); Serum Triglycerides (% control values) (lipid metabolism): NS (Except for serum calcium, values which differ from control values by less than 15% are considered as non significant (NS))
CCOP(=O)(OCC)C(CCCc1ccccc1)P(=O)(OCC)OCC [Compound 29, Tetraethyl 4-phenylbutylidene 1,1-diphosphonate]	–	found to increase	–	33	17	46	–
COP(=O)(OC)C(CCCc1ccccc1)P(=O)(OC)OC [Compound 37, Tetramethyl 4-phenylbutylidene 1,1-diphosphonate]	observed most dramatically	found to increase	highly significant activity	49	33	42	–
